Our source for the GI50 and TGI values is PubChem BioAssay (NCI).

Some test systems named below: COLO 205 colon; A498 renal; SK-MEL-5 melanoma; HS 578T breast; NCI-H226 lung; SF-268 CNS; HCC-2998 colon; A549 NSCLC.
What all share (assay): growth of human tumour cells (NCI), 48 h

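Protocol summary: plate cells (96-well), add compound at 5 concentrations, incubate 48 h, interpolate endpoints linearly. At the GI50, growth is halved. Definition used: TGI = concentration required for complete inhibition of growth.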

For the compound `CCOC(=O)Nc1ccc(C(=O)/C=C/c2ccccc2)cc1`, the GI50 was 20.3 µM with COLO 205 colon; 26.1 µM in the assay with A498 renal; 27.1 µM in the assay with SK-MEL-5 melanoma; 30.9 µM with HS 578T breast; 19.8 µM with NCI-H226 lung; 23.8 µM in the assay with SF-268 CNS. For the same compound, the values for the GI50 in the assay with HCC-2998 colon and with A549 NSCLC were 17.1 µM and 30.1 µM, respectively. Also, the TGI with COLO 205 colon was 47.6 µM; in the assay with A498 renal it was 72.6 µM; in the assay on SK-MEL-5 melanoma, > 100 µM; with HS 578T breast, 86 µM; in the assay on NCI-H226 lung it was 68.6 µM; with SF-268 CNS it was 69 µM. Also, the figures for the TGI in the assay on HCC-2998 colon and in the assay with A549 NSCLC were 31.6 µM and > 100 µM, respectively.
With `O=C(NCCNC(=O)c1ccc(F)cc1)Nc1ccc(-n2cc(-c3ccncc3)c(-c3ccc(Cl)c(O)c3)n2)cc1`, the GI50 in the assay with A498 renal is 0.336 µM; in the assay with SK-MEL-5 melanoma it was 0.28 µM; in the assay with HS 578T breast it was 0.462 µM; in the assay on NCI-H226 lung, 0.809 µM; in the assay on SF-268 CNS, 0.427 µM; in the assay on HCC-2998 colon it was 0.597 µM. The GI50 in the assay with A549 NSCLC is 1.75 µM. The TGI with A498 renal was 2.83 µM; in the assay on SK-MEL-5 melanoma, 1.12 µM; with HS 578T breast it was > 100 µM; with NCI-H226 lung it was 6.48 µM; in the assay with SF-268 CNS it was 7.33 µM; in the assay with HCC-2998 colon, 2.85 µM. For the same compound, in the assay on A549 NSCLC, the TGI worked out at 9.38 µM.
On to `Oc1cc2c(cc1C(c1ccc3c(c1)OCO3)N1CCN(C(c3ccc4c(c3)OCO4)c3cc4c(cc3O)OCO4)CC1)OCO2` (centres undefined), for which the TGI in the assay on COLO 205 colon is 90.8 µM; with SK-MEL-5 melanoma, 37.9 µM; in the assay with HS 578T breast, 30.5 µM; in the assay on NCI-H226 lung it was 29.6 µM; in the assay with SF-268 CNS, 59.3 µM; in the assay with A549 NSCLC, > 100 µM.
For the compound `Cc1ccc(S(=O)(=O)N[C@@H](Cc2ccccc2)C(=O)CCl)cc1`, the GI50 was 19.9 µM with COLO 205 colon, 21.2 µM with HS 578T breast, 1.03 µM with HCC-2998 colon and 42.6 µM in the assay on A549 NSCLC. For the same compound, the TGI is 52.3 µM with COLO 205 colon; 28.3 µM with SK-MEL-5 melanoma; 64.1 µM in the assay with HS 578T breast; 43.6 µM in the assay with SF-268 CNS; 21.8 µM in the assay on HCC-2998 colon; > 100 µM with A549 NSCLC.
On to `C=C(CN(C)Cc1ccccc1)c1ccc(C(=O)Nc2ccccc2N)cc1`, for which the GI50 with COLO 205 colon is 7.72 µM; in the assay with SK-MEL-5 melanoma, 6.72 µM; in the assay with HS 578T breast, 3.66 µM; in the assay on SF-268 CNS it was 5.98 µM; in the assay on A549 NSCLC it was 5.19 µM. For the same compound, the TGI in the assay with COLO 205 colon was 17.6 µM; with SK-MEL-5 melanoma it was 14.6 µM; in the assay with HS 578T breast, 33.6 µM; with SF-268 CNS, 16.8 µM; with A549 NSCLC, 19.1 µM.
Consider `Cn1ccc2c3c(=O)cc[nH]c3ccc21`, for which the GI50 in the assay with COLO 205 colon is > 100 µM; in the assay on SK-MEL-5 melanoma, > 100 µM; in the assay with HS 578T breast, 20.2 µM; in the assay with NCI-H226 lung it was > 100 µM; in the assay with SF-268 CNS it was > 100 µM; in the assay on HCC-2998 colon, > 100 µM. In addition, the GI50 with A549 NSCLC is > 100 µM. Besides, the TGI in the assay on COLO 205 colon, with SK-MEL-5 melanoma, in the assay on HS 578T breast, with NCI-H226 lung, with SF-268 CNS and in the assay with HCC-2998 colon was > 100 µM each time. For the same compound, the TGI in the assay on A549 NSCLC is > 100 µM.
On to `COC(=O)c1ccc(NC(N)=NCC(C)(C)COc2ccc(C(F)(F)F)cc2)nc1`, for which the GI50 was 1.63 µM in the assay on COLO 205 colon, 1.94 µM with A498 renal, 1.97 µM with HS 578T breast and 1.63 µM in the assay on A549 NSCLC. The TGI with COLO 205 colon stood at 3.23 µM; in the assay on A498 renal, 5.82 µM; in the assay on HS 578T breast, 4.33 µM; in the assay with A549 NSCLC, 3.17 µM.
`O=C(O)c1nnsc1-c1csnn1`: the TGI in the assay with COLO 205 colon, in the assay on A498 renal, in the assay on SK-MEL-5 melanoma, with HS 578T breast, in the assay on NCI-H226 lung and in the assay on SF-268 CNS was > 100 µM each time. Moreover, the TGI in the assay on A549 NSCLC was > 100 µM.
Turning to `CN(C)CCCN1c2ccc(O)cc2Sc2ccc(Cl)cc21`, the TGI in the assay on COLO 205 colon came out at 39.3 µM; in the assay with A498 renal it was 31.6 µM; in the assay on SK-MEL-5 melanoma, 28.2 µM; with HS 578T breast it was 23.1 µM; in the assay with NCI-H226 lung it was 24.7 µM; with SF-268 CNS, 21 µM. The same compound showed a TGI with A549 NSCLC of 28.6 µM.
As to `CCCCCCCC(=O)NS(=O)(=O)c1ccccc1`, the TGI with COLO 205 colon, with A498 renal, with SK-MEL-5 melanoma, in the assay on HS 578T breast, in the assay on SF-268 CNS and with HCC-2998 colon was > 100 µM throughout. The TGI in the assay on A549 NSCLC was > 100 µM.
Regarding `Clc1ccc(-c2nc(C(Cl)Cl)nc3cc(-c4ccccc4)nn23)cc1`, the GI50 in the assay with A498 renal is 0.912 µM; in the assay with SK-MEL-5 melanoma, > 50 µM; in the assay on HS 578T breast it was 1.38 µM; with NCI-H226 lung it was > 50 µM; in the assay on SF-268 CNS, 1.7 µM; in the assay with HCC-2998 colon, 0.741 µM. Moreover, the GI50 with A549 NSCLC was 0.875 µM. Besides, the TGI with A498 renal was 2.21 µM; in the assay with SK-MEL-5 melanoma it was > 50 µM; in the assay with HS 578T breast, > 50 µM; in the assay with NCI-H226 lung it was > 50 µM; in the assay on SF-268 CNS it was > 50 µM; with HCC-2998 colon it was 1.42 µM. The TGI with A549 NSCLC stood at 2.34 µM.
In the case of `NC(=NCCO)c1ccc(N2CCCN(c3ccc(C(N)=NCCO)cc3)CC2)cc1`, the GI50 in the assay with COLO 205 colon was > 100 µM; in the assay on NCI-H226 lung, > 100 µM; in the assay on HCC-2998 colon it was > 100 µM; in the assay with A549 NSCLC, 98.3 µM. Further, the TGI in the assay on COLO 205 colon, with NCI-H226 lung, in the assay on HCC-2998 colon and in the assay with A549 NSCLC was > 100 µM in each case.
For the compound `Cc1nc2ccccc2c(/C=C/c2ccccc2)c1C(=O)/C=C/c1ccc(Cl)cc1`, the GI50 is 1.62 µM with SK-MEL-5 melanoma, 3.15 µM in the assay with SF-268 CNS and 1.81 µM in the assay on HCC-2998 colon. The TGI was 3.04 µM in the assay on SK-MEL-5 melanoma, > 100 µM in the assay with SF-268 CNS and 3.35 µM in the assay with HCC-2998 colon.
Consider `CCOC(=O)C(O)Cc1cnc2ccccc2n1` (centres undefined), for which the TGI in the assay on COLO 205 colon, in the assay with A498 renal, in the assay with SK-MEL-5 melanoma, with HS 578T breast, in the assay with SF-268 CNS and in the assay with HCC-2998 colon was > 100 µM in each case. Besides, the TGI with A549 NSCLC was > 100 µM.
